This note sets out measurements from US3943154A, “Acylamides of beta-cyano-ethenesulfonyl substituted aminoarenes” (Sanitized Incorporated, priority 1973, dated 1976).

Assay type in all cases: cell-based
For assay [1], the system named is Aspergillus niger ATCC 6257. Nature of the assay: agar incorporation test, antifungal activity. As to conditions: lowest concentration showing no growth or sporulation, four days at 28° C; for MIC: Aspergillus niger, ATCC6257, 96 h, read-out: Antifungal Activity A. niger, minimum inhibitory concentration. The procedure:
The anti-fungal activity of the test compounds was determined employing the "agar incorporation" technique, utilizing spores from Aspergillus niger ATCC 6257 as a representative organism. Test solutions were prepared as described above in acetone or dimethylsulfoxide. A source of carbon agar such as Mycophil Agar was used. The agar was melted and cooled and placed in a constant temperature water bath at 45° C + 3° C. About 13-14 ml of the agar was then poured into a sterile Petri dish, the required amount of test solution to give the desired concentration immediately added thereto, and the dish rotated and swirled by hand to obtain a uniform mixture before the agar hardened.
The hardened plates were inoculated with the test organism by fishing spores from a 7-14 day old slant with the inocculating needle and spotting the spores on the plates, usually in several places. The inoculated plates were incubated for four days in an incubator maintained at 28° C +2° C and with a relative humidity of 95%+.
The lowest concentration of each test compound showing no growth or sporulation of the test organism was taken as the minimum inhibitory concentration and is reported in the following tabulation.
(§1) The button assay and agar incorporation tests were also utilized to determine the corresponding inhibitory concentrations of various control materials, viz., the following well known commercial antimicrobials and fungicides: hexachlorophene, tribromosalicylanilide, trichlorocarbanilide,Captan (N-(trichloromethylthio)4cyclohexene-1,2-dicarboximide) and Zineb (zinc ethylenebis[dithiocarbamate]). The minimum inhibitory concentration of each of the various control materials against the respective organisms is indicated in Table IV below: […]

The test system of assay [2] is Bacillus subtilis ATCC 9525. Nature of the assay: button assay, antibacterial activity. To be noted: 24 hours at 37° C; for MIC: Bacillus subtilis, ATCC9525, lowest concentration showing a clear zone of inhibition, read-out: Antibacterial Activity B.subtilis, minimum inhibitory concentration. The protocol:
(§2) In the test program, the minimum inhibitory concentrations of the respective test compounds against various Gram positive and Gram negative bacteria were determined, employing the "button assay" method. The test organisms utilized were standard cultures of Staphylococcus aureus ATCC 6538 DR, a penicillin resistant Gram positive bacterium; Bacillus subtilis ATCC 9525, a spore-forming Gram positive bacillus; and Salmonella typhosa ATCC 6539, a Gram negative bacterium.
(§3) In the tests the respective compounds were dissolved in a suitable solvent, usually acetone or dimethylsulfoxide, to give solutions with known concentrations of active material. The highest concentration was ordinarily 1000 ppm (parts per million) [0.1%], and dilutions were made in suitable steps down to 1 ppm. Penicillin test buttons of filter paper having a diameter of 13 mm (socalled "Peniassay" buttons) were added to each solution within a test tube and left submerged for five minutes. They were then removed and left to dry on paper towels under sterile conditions. A laminar flow sterile cabinet equipped with ultraviolet lamps operating under positive air pressure was utilized for this purpose.
(§4) An 18-24 hour old nutrient broth culture (standard 1.5% nutrient agar) prepared in conventional manner from a slant and having passed through at least three consecutive daily transfers was used for inoculation. Melted and cooled sterile agar (45° C) was inoculated with the respective broth cultures by addition of 20 ml broth per liter of agar. The agar was then dispensed into Petri dishes (20 ml per plate) under sterile conditions and allowed to harden.
The test buttons were placed on the surface of the hardened agar and the plates incubated for 24 hours at 37° C. Where, on inspection, a clear zone of inhibition appeared around the button, inhibition of growth was presumed. Where growth touched the button there was no inhibition. For each of the test compounds, the lowest concentration showing a clear zone is reported as the inhibitory concentration in the following table.
as §1

Assay [3] concerns Staphylococcus aureus ATCC 6538 DR. Description: button assay, antibacterial activity. As to conditions: for MIC: Staphylococcus aureus, ATCC6538, 24 h, read-out: Antibacterial Activity S.aureus, minimum inhibitory concentration. The procedure: as §2, §3, §4
(§5) The test buttons were placed on the surface of the hardened agar and the plates incubated for 24 hours at 37° C. Where, on inspection, a clear zone of inhibition appeared around the button, inhibition of growth was presumed. Where growth touched the button there was no inhibition. For each of the test compounds, the lowest concentration showing a clear zone is reported as the inhibitory concentration in the following table. […]

Assay [4] relates to Salmonella typhosa ATCC 6539. Description: button assay, antibacterial activity. As to conditions: for MIC: Salmonella enterica, read-out: Antibacterial Activity S.typhosa, minimum inhibitory concentration. The procedure:
as §2
The highest concentration was ordinarily 1000 ppm (parts per million) [0.1%], and dilutions were made in suitable steps down to 1 ppm. Penicillin test buttons of filter paper having a diameter of 13 mm (socalled "Peniassay" buttons) were added to each solution within a test tube and left submerged for five minutes. They were then removed and left to dry on paper towels under sterile conditions. A laminar flow sterile cabinet equipped with ultraviolet lamps operating under positive air pressure was utilized for this purpose.
as §4, §5

Where [5] appears, read: button assay, lowest concentration showing a clear zone of inhibition, 24 hours at 37° C.

Converted amounts (≈) assume the structure as drawn. Where two headings read alike, the source gives them in different places.

Consider `N#CC=CS(=O)(=O)c1ccc(NS(=O)(=O)c2cc(Cl)cc(Cl)c2O)cc1` [Example 24, 3-[4-(3,5-dichloro-2-hydroxybenzenesulfonamido)-benzenesulfonyl]acrylonitrile], for which the MIC came to 1000 µg/mL (≈ 2310 µM) in assay [1], 300 µg/mL (≈ 692 µM) in assay [2], 300 µg/mL (≈ 692 µM) in assay [3] and 300 µg/mL (≈ 692 µM) in assay [4] (24 h).

`N#CC=CS(=O)(=O)c1ccc(NS(=O)(=O)c2ccc(Oc3ccc(S(=O)(=O)Nc4ccc(S(=O)(=O)C=CC#N)cc4)cc3)cc2)cc1` [Example 34, 4,4'-N,N'-bis[4-(2-cyanoethenesulfonyl)-phenylsulfamoyl]diphenyl ether]: the MIC was over 1000 µg/mL in assay [1], 100 µg/mL (≈ 141 µM) in assay [2], 100 µg/mL (≈ 141 µM) in assay [3] and 50 µg/mL (≈ 70.3 µM) in assay [4] (24 h).

`O=C(Nc1ccc(Cl)cc1)Nc1ccc(Cl)c(Cl)c1` [trichlorocarbanilide, reference compound]: the “Antifungal Activity A. niger, minimum inhibitory concentration” value in assay [1] is reported as 1,000 ppm. Also, the “Antibacterial Activity B.subtilis, minimum inhibitory concentration” value in assay [2] (lowest concentration showing a clear zone of inhibition) is reported as > 10,000 ppm. Besides, the “Antibacterial Activity S.aureus, minimum inhibitory concentration” value in assay [3] (setting [5]) was found to be 10 ppm. Further, in assay [4] (setting [5]), the “Antibacterial Activity S.typhosa, minimum inhibitory concentration” value is on record as 10,000 ppm.

For the molecule `Cc1cc(C)c(S(=O)(=O)Nc2ccc(S(=O)(=O)C=CC#N)cc2)c(C)c1` [Example 18, 3-[4-(2,4,6-trimethylbenzenesulfonamido)benzenesulfonyl]acrylonitrile], the MIC in assay [1] stood at 100 µg/mL (≈ 256 µM); in assay [2], 10 µg/mL (≈ 25.6 µM); in assay [3] it was 5 µg/mL (≈ 12.8 µM); in assay [4] (24 h), 10 µg/mL (≈ 25.6 µM).

Take `C=CS(=O)(=O)Nc1ccc(S(=O)(=O)C=CC#N)cc1` [Example 9, 3-(4-[…])ACRYLONITRILE]: the MIC in assay [1] was 100 µg/mL (≈ 335 µM); in assay [2], 10 µg/mL (≈ 33.5 µM); in assay [3], 20 µg/mL (≈ 67 µM); in assay [4] (24 h), 50 µg/mL (≈ 168 µM).

`N#CC=CS(=O)(=O)c1ccc(NSC(Cl)(Cl)Cl)cc1` [Example 42, 3-(4-trichlorosulfenamidobenzenesulfonyl)acrylonitrile]: the MIC in assay [1] stood at 1000 µg/mL (≈ 2800 µM); in assay [2], 20 µg/mL (≈ 55.9 µM); in assay [3] it was 20 µg/mL (≈ 55.9 µM); in assay [4] (24 h), 20 µg/mL (≈ 55.9 µM).

Consider `CCS(=O)(=O)Nc1ccc(S(=O)(=O)C=CC#N)cc1` [Example 2, 3-(4-ethanesulfonamidobenzenesulfonyl)acrylonitrile], for which the MIC in assay [1] is over 1000 µg/mL; in assay [2], 20 µg/mL (≈ 66.6 µM); in assay [3] it was 100 µg/mL (≈ 333 µM); in assay [4] (24 h), 20 µg/mL (≈ 66.6 µM).

Take `N#CC=CS(=O)(=O)c1ccc(NS(=O)(=O)c2ccc(Cl)c([N+](=O)[O-])c2)cc1` [Example 23.2, 3-[4-(4-chloro-3-nitrobenzenesulfonamido)benzenesulfonyl]acrylonitrile]: the MIC was found to be 1000 µg/mL (≈ 2340 µM) in assay [1], 300 µg/mL (≈ 701 µM) in assay [2], 100 µg/mL (≈ 234 µM) in assay [3] and 100 µg/mL (≈ 234 µM) in assay [4] (24 h).

With `N#CC=CS(=O)(=O)c1ccc(NS(=O)(=O)c2ccc([N+](=O)[O-])cc2)cc1` [Example 22.1, 3-[4-(4-nitrobenzenesulfonamido)benzenesulfonyl]acrylonitrile], the MIC was over 1000 µg/mL in assay [1], 50 µg/mL (≈ 127 µM) in assay [2], 100 µg/mL (≈ 254 µM) in assay [3] and 50 µg/mL (≈ 127 µM) in assay [4] (24 h).

Turning to `CC(=O)Nc1nnc(S(=O)(=O)Nc2ccc(S(=O)(=O)C=CC#N)cc2)s1` [Example 38, 3-[4-(2-acetamido-1,3,4-thiadiazole-5-sulfonamido)benzenesulfonyl]acrylonitrile], the MIC in assay [1] came to 1000 µg/mL (≈ 2420 µM); in assay [2], 50 µg/mL (≈ 121 µM); in assay [3], 500 µg/mL (≈ 1210 µM); in assay [4] (24 h), 100 µg/mL (≈ 242 µM).

As to `N#CC=CS(=O)(=O)c1ccc(NS(=O)(=O)c2ccccc2[N+](=O)[O-])cc1` [Example 22.3, 3-[4-(2-nitrobenzenesulfonamido)benzenesulfonyl]acrylonitrile], the MIC in assay [1] is over 1000 µg/mL; in assay [2], about 50 µg/mL (≈ 127 µM); in assay [3] it was 10 µg/mL (≈ 25.4 µM); in assay [4] (24 h), 100 µg/mL (≈ 254 µM).

Take `N#CC=CS(=O)(=O)c1ccc(NS(=O)(=O)c2ccc(O)c(C(=O)O)c2)cc1` [Example 25, 3-[4-(4-HYDROXY-3-[…])-BENZENESULFONYL]ACRYLONITRILE]: the MIC in assay [1] was 500 µg/mL (≈ 1220 µM); in assay [2] it was 50 µg/mL (≈ 122 µM); in assay [3] it was 50 µg/mL (≈ 122 µM); in assay [4] (24 h) it was 50 µg/mL (≈ 122 µM).

Turning to `Cc1ccc(S(=O)(=O)Nc2ccc(S(=O)(=O)C=CC#N)cc2)cc1` [Example 13, 3-[4-(4-methylbenzenesulfonamido)benzenesulfonyl]acrylonitrile], the MIC in assay [1] was over 1000 µg/mL; in assay [2], 5 µg/mL (≈ 13.8 µM); in assay [3], 5 µg/mL (≈ 13.8 µM); in assay [4] (24 h), 5 µg/mL (≈ 13.8 µM).

Take `O=C1C2CC=CCC2C(=O)N1SC(Cl)(Cl)Cl` (centres unmarked) [Captan, N-(trichloromethylthio)4cyclohexene-1,2-dicarboximide, reference compound]: the MIC came out at 300 µg/mL (≈ 998 µM) in assay [1], 100 µg/mL (≈ 333 µM) in assay [2], 25 µg/mL (≈ 83.2 µM) in assay [3] and 25 µg/mL (≈ 83.2 µM) in assay [4] (setting [5]).

Consider `N#CC=CS(=O)(=O)c1ccc(NS(=O)(=O)c2ccc(Cl)cc2)cc1` [Example 20, 3-[4-(4-chlorobenzenesulfonamido)benzenesulfonyl]acrylonitrile], for which the MIC in assay [1] is over 1000 µg/mL; in assay [2], 5 µg/mL (≈ 13.1 µM); in assay [3] it was 20 µg/mL (≈ 52.2 µM); in assay [4] (24 h) it was 10 µg/mL (≈ 26.1 µM).

For `N#CC=CS(=O)(=O)c1ccc(NSc2ccc([N+](=O)[O-])cc2)cc1` [Example 43, 3-[4-(4-nitrobenzenesulfenamido)benzenesulfonyl]acrylonitrile], the MIC in assay [1] is 300 µg/mL (≈ 830 µM); in assay [2] it was 5 µg/mL (≈ 13.8 µM); in assay [3], 5 µg/mL (≈ 13.8 µM); in assay [4] (24 h), 10 µg/mL (≈ 27.7 µM).

In the case of `N#CC=CS(=O)(=O)c1ccc(NS(=O)(=O)c2cccc(C(=O)O)c2)cc1` [Example 26, 3-[4-(3-carboxybenzenesulfonamido)-benzenesulfonyl]acrylonitrile], the MIC in assay [1] was over 1000 µg/mL; in assay [2], 10 µg/mL (≈ 25.5 µM); in assay [3], 10 µg/mL (≈ 25.5 µM); in assay [4] (24 h), 10 µg/mL (≈ 25.5 µM).

On to `Oc1c(Cl)cc(Cl)c(Cl)c1Cc1c(O)c(Cl)cc(Cl)c1Cl` [hexachlorophene, reference compound], for which the MIC in assay [1] was over 1000 µg/mL; in assay [2], 5 µg/mL (≈ 12.3 µM); in assay [3] it was 5 µg/mL (≈ 12.3 µM); in assay [4] (setting [5]), 20 µg/mL (≈ 49.2 µM).

On to `CC(C)c1cc(C(C)C)c(S(=O)(=O)Nc2ccc(S(=O)(=O)C=CC#N)cc2)c(C(C)C)c1` [Example 19, 3-[4-(2,4,6-tri-isopropylbenzenesulfonamido)benzenesulfonyl]acrylonitrile], for which the MIC in assay [1] is over 1000 µg/mL; in assay [2], 1000 µg/mL (≈ 2110 µM); in assay [3] it was 1000 µg/mL (≈ 2110 µM); in assay [4] (24 h), 1000 µg/mL (≈ 2110 µM).

On to `N#CC=CS(=O)(=O)c1ccc(NS(=O)(=O)c2ccc(Cl)cc2[N+](=O)[O-])cc1` [Example 23.3, 3-[4-(4-chloro-2-nitrobenzenesulfonamido)benzenesulfonyl]acrylonitrile], for which the MIC in assay [1] was 100 µg/mL (≈ 234 µM); in assay [2], 10 µg/mL (≈ 23.4 µM); in assay [3] it was 10 µg/mL (≈ 23.4 µM); in assay [4] (24 h), 20 µg/mL (≈ 46.7 µM).
